The source of these data is article PMC8360279, “Combination of Polygoni Multiflori Radix Praeparata and Acori Tatarinowii Rhizoma Alleviates Learning and Memory Impairment in Scopolamine-Treated Mice by Regulating Synaptic-Related Proteins” (Frontiers in Pharmacology, 2021).

The subject of data set [1] is BDNF, TrkB, ERK, p-ERK, CREB, and p-CREB proteins in the hippocampus. Put plainly: Western blot of BDNF/TrkB/ERK/CREB signaling axis components in the hippocampus. The settings on record: scopolamine treatment vs control mice. For orientation: Immunoblotting shows a protein as a band on a membrane.
Description: The mice were randomly divided into the following eight groups (n = 12 per group): 1) control (normal feeding); 2) model [scopolamine, 4 mg kg^−1⋅day^−1 by intraperitoneal injection (i.p.)]; 3) PAL [scopolamine, 4 mg kg^−1⋅day^−1 i. p. + PA, 1.56 g kg^−1⋅day^−1 by intragastric administration (i.g.)]; 4) PAH (scopolamine, 4 mg kg^−1⋅day^−1 i. p. + PA, 6.24 g kg^−1⋅day^−1 i. g.); 5) PL (scopolamine, 4 mg kg^−1⋅day^−1 i. p. + PMRP, 0.78 g kg^−1⋅day^−1 i. g.); 6) PH (scopolamine, 4 mg kg^−1⋅day^−1 i. p. + PMRP 3.12 g kg^−1⋅day^−1 i. g.); 7) AL (scopolamine, 4 mg kg^−1⋅day^−1 i. p.+ ATR, 0.78 g kg^−1⋅day^−1 i. g.); and 8) AH (scopolamine, 4 mg kg^−1⋅day^−1 i. p. + ATR, 3.12 g kg^−1⋅day^−1 i. g.). […]
Three mice per group were deeply anesthetized with chloral hydrate (320 mg/kg i. p.) 60 min after the behavioral test and perfused through the ascending aorta with PBS. […] The hippocampus tissue was lysed in radioimmunoprecipitation assay buffer containing protease and phosphatase inhibitors; the protein concentration of the lysate was determined with the Bradford assay. […] After three washes with washing buffer and incubation with secondary antibody (1:3,000) for 2 h, protein bands were detected with SuperSignal West Pico Chemiluminescent Substrate (Solarbio, Beijing, China) and the signal intensity of target protein bands was normalized to that of the loading control (actin).
For data set [2], the system named is scopolamine-treated mice. Briefly: Morris water maze test in scopolamine-treated mice. The settings on record: scopolamine 4 mg/kg i.p. (dementia model); starting from day 3; p < 0.001.
Description: The mice were randomly divided into the following eight groups (n = 12 per group): 1) control (normal feeding); 2) model [scopolamine, 4 mg kg^−1⋅day^−1 by intraperitoneal injection (i.p.)]; 3) PAL [scopolamine, 4 mg kg^−1⋅day^−1 i. p. + PA, 1.56 g kg^−1⋅day^−1 by intragastric administration (i.g.)]; 4) PAH (scopolamine, 4 mg kg^−1⋅day^−1 i. p. + PA, 6.24 g kg^−1⋅day^−1 i. g.); 5) PL (scopolamine, 4 mg kg^−1⋅day^−1 i. p. + PMRP, 0.78 g kg^−1⋅day^−1 i. g.); 6) PH (scopolamine, 4 mg kg^−1⋅day^−1 i. p. + PMRP 3.12 g kg^−1⋅day^−1 i. g.); 7) AL (scopolamine, 4 mg kg^−1⋅day^−1 i. p.+ ATR, 0.78 g kg^−1⋅day^−1 i. g.); and 8) AH (scopolamine, 4 mg kg^−1⋅day^−1 i. p. + ATR, 3.12 g kg^−1⋅day^−1 i. g.). Mice in each group were orally administered PA, PMRP, or ATR every day for 30 days; after the last gavage, scopolamine was intraperitoneally injected and the Morris water maze experiment was conducted 40 min later for 6 days.
Spatial memory was assessed with the Morris water maze test as previously described [Lan et al. (2012)], with slight modifications. […] Each mouse was tested twice a day for 5 days and the latency to reach the platform was recorded. […] The time that the mouse spent in the target quadrant (ie, where the platform was previously hidden) and the number of times it crossed the platform were measured. […]
Data set [3] relates to P90RSK and PSD95 in the hippocampus. Briefly: Immunohistochemistry of P90RSK and PSD95 in the hippocampus. The class given is in vivo, Kunming mice. The conditions noted are these: scopolamine vs control mice. The procedure:
The brain was removed and immediately fixed in 4% paraformaldehyde in PBS. […] After quenching endogenous peroxidase and blocking with normal goat serum, the sections were incubated overnight at 4°C with antibodies against P90RSK and PSD95 (both at 1:5,000). The sections were washed with PBS and incubated with secondary antibodies for 2 h at 37°C, and then stained with 3,3′-diaminobenzidine in chromogen solution; they were then counterstained with hematoxylin, dehydrated in ethanol, cleared in xylene, and mounted with Cytoseal (Thermo Fisher Scientific). P90RSK and PSD95 immunoreactivity was measured using Image Pro Plus v6.0 software (Media Cybernetics, Rockville, MD, United States). Brown staining on the cell membrane or in the cytoplasm was represented positive staining, with the staining intensity reflecting the expression levels of P90RSK and PSD95 proteins.

Data set [4] relates to neurotransmitter levels in the cerebral cortex of scopolamine-treated mice. Put plainly: HPLC-MS analysis of neurotransmitter content in mouse cortical tissue. Format: in vivo, Kunming mice. The conditions noted are these: scopolamine injection 4 mg/kg i.p. vs control mice.
Data set [5] in a line: Pharmacokinetics in rat plasma after oral administration of PA, PMRP or ATR (HPLC-MS and GC-MS). The settings on record: for Tmax: rat plasma, mean ± S.D., n = 6; for Plasma concentration after oral PA compared to the level after PMRP or ATR: rats, PA 4.32 g/kg vs PMRP or ATR 2.16 g/kg.
Description: (§1) Additionally, 18 rats were orally administered PA, PMRP, or ATR once, respectively (6 rats in each group). The doses were 4.32 g/kg for PA, 2.16 g/kg for PMRP or ATR. The whole blood samples were collected at different time points.
(§2) The components of PA were analyzed by HPLC-MS. The samples were separated on a ZORBAX StableBond C18 reversed-phase column (2.1 × 50 mm, 1.8 μm) (Agilent Technologies Co., CA, United States). The autosampler was set at 20 C, and gradient elution was performed with 0.1% formic acid as solvent A and acetonitrile as solvent B. The gradient program was as follows: 0–10 min, 88%–40% A; 10–12 min, 40%–1% A; and 12–15 min, 1% A. The flow rate was set at 0.3 ml min^−1, and the injection volume was 4 μL. The total run time was 15 min for each sample.
(§3) GC-MS analysis was conducted on a 7890A series gas chromatograph coupled to a Model 7,693 autosampler and Model 5975C Inert XL EI MSD with Triple-Axis Detector (Thermo Fisher Scientific). The carrier gas was 99.99% high-purity helium at a flow rate of 1.2 ml/min. Samples were separated on a TG-5MS column (60 × 0.25 mm and 0.25 μm film thickness). The sample volume was 1 μL with a split ratio of 5:1. The oven temperature program was initially set at 100°C for 1 min, then ramped at 10°C/min to 180°C and held for 1 min; ramped at 5°C/min to 210°C and held for 1 min; and ramped at 10°C/min to 260°C and held for 5 min. The total run time was 27 min. The injection port and detector temperatures were 280°C and 300°C, respectively. Electrospray ionization was performed at 70 eV. Selective ion monitoring was set for quantitation with a dwell time of 100 m/ion.
(§4) Male rats (n = 18) were fasted but had free access to water for 12 h prior to administration of PA, PMRP, and ATR (6 rats in each group). Blood samples were collected from the posterior orbital venous plexus of rats before dosing (time 0) and 5, 10, and 30 min and 1, 2, 4, 8, 16, and 24 h after dosing. The samples were immediately centrifuged at 4,500 rpm for 10 min and the separated plasma samples were stored at −80°C until analysis.
For data set [6] the following is noted: Chen et al., cited from earlier work.
Data set [7] can be described thus: in vivo. The settings on record: male, Sprague-Dawley, rat, po; for Tmax: rat plasma, mean ± S.D., n = 6.
Description: as §1, §2, §3, §4
The test system of data set [8] is ERK1/2/Nrf2/HO-1 pathway. Also noted: method as in Lai et al. (2020). The settings on record: by modulating the ERK1/2/Nrf2/HO-1 pathway; ref Lai et al. (2020); cited from earlier work.
The conditions of data set [9]: male, Sprague-Dawley, rat, in vivo, po, 4.32 g/kg.
Description: as §1, §2, §3, §4
Setting [10] is: male, Sprague-Dawley, rat, plasma, po, 2.16 g/kg.
The mark [11] stands for this setting: male, Sprague-Dawley, rat, plasma, po, 4.32 g/kg.
The mark [12] stands for this setting: male, Sprague-Dawley, rat, plasma, po, 4.32 g/kg, Tmax, oral PA extract 4.32 g/kg once.
Setting [13] is: 4.32 g/kg, oral PA extract 4.32 g/kg once.
Setting [14] is: oral ATR extract 2.16 g/kg once.
Where [15] appears, read: male, Sprague-Dawley, rat, plasma, po, 2.16 g/kg, Tmax, oral ATR extract 2.16 g/kg once.
[16] abbreviates: 2.16 g/kg, oral PMRP extract 2.16 g/kg once.
The mark [17] stands for this setting: oral PMRP extract 2.16 g/kg once.

Where a name gives a salt, the structure may show the parent alone.

In the case of `CN1[C@@H]2C[C@@H](OC(=O)[C@H](CO)c3ccccc3)C[C@H]1[C@@H]1O[C@@H]12` [Scopolamine, Scopolamine Hydrobromide], the “Levels of BDNF, TrkB, ERK, p-ERK, CREB and p-CREB proteins in the hippocampus” value in data set [1] is on record as “reduced”. In data set [2], the “Time to find the platform vs controls” value is recorded as “significantly longer”. In addition, the “Immunoreactivity of P90RSK and PSD95 in the hippocampus” value in data set [3] was “reduced”. Also, the “Concentrations of ACh, 5-HT, NE, Epi, Glu and GABA in the cortex” value in data set [4] is “reduced”.
For the compound `OCC1OC(Oc2c(O)cc(O)cc2C=Cc2ccc(O)cc2)C(O)C(O)C1O` [THSG, 2,3,5,4′-Tetrahydroxystilbene-2-O-β-D-glucoside], the AUC(0-inf) in data set [5] (setting [10]) stood at 102 ± 49.7 ng·h/mL; in data set [5] (setting [11]), 1630 ng·h/mL. In addition, the results for the AUC(0-t) in data set [5] (setting [10]) and in data set [5] (setting [11]) were 102 ± 49.4 ng·h/mL and 1520 ng·h/mL, respectively. Further, the highest concentration (Cmax) stood at 147 ± 105 ng/mL in data set [5] (setting [10]) and 708 ± 281 ng/mL in data set [5] (setting [11]). For the same compound, the values for the half-life in [5] (setting [10]) and in data set [5] (setting [11]) were 0.17 ± 0.136 h and 3.01 ± 3.36 h, respectively. Also, the Tmax is 0.39 h in data set [5] (male, Sprague-Dawley, rat, plasma, po, 2.16 g/kg, Tmax, oral PMRP extract 2.16 g/kg once); 0.81 h in [5] (setting [12]); 0.806 ± 0.695 h in [5] (oral PA extract 4.32 g/kg once, listed as 2,3,5,4′-Tetrahydroxystilbene-2-O-β-glucoside); 0.389 ± 0.356 h in data set [5] (oral PMRP extract 2.16 g/kg once, listed as 2,3,5,4′-Tetrahydroxystilbene-2-O-β-glucoside). In data set [5], the “Plasma concentration after oral PA compared to the level after PMRP or ATR” value was “increased”. Also, the Effect on memory entry in data set [6] (by modulating ERK1/2 and CREB activation and increasing BDNF and PSD95 levels, ref Hou et al., 2011, Wang et al., Zhou et al., 2012, Shen et al., 2015, 2016) is reported as “enhanced memory”.
Take `COc1cc(OC)c(OC)cc1C=O` [asarylaldehyde]: the values for the AUC(0-inf) in data set [7] (2.16 g/kg) and in [7] (4.32 g/kg) were 1550 ng·h/mL and 1970 ± 766 ng·h/mL, respectively. Further, the figures for the area under the curve AUC(0-t) in [7] (2.16 g/kg) and in data set [7] (4.32 g/kg) were 1440 ng·h/mL and 1710 ± 503 ng·h/mL, respectively. The Cmax in [7] (2.16 g/kg) came out at 119 ± 52.2 ng/mL; in [7] (4.32 g/kg) it was 200 ± 45 ng/mL. Also, the half-life in data set [7] (2.16 g/kg) was 7.18 ± 1.23 h; in data set [7] (4.32 g/kg) it was 7.38 ± 2.94 h. The Tmax in [7] (2.16 g/kg, oral ATR extract 2.16 g/kg once) came out at 2.21 h; in data set [7] (setting [13]) it was 0.43 h; in data set [5] (setting [14]), 2.208 ± 3.217 h; in data set [5] (oral PA extract 4.32 g/kg once), 0.431 ± 0.442 h. For the same compound, the “Plasma concentration after oral PA compared to the level after PMRP or ATR” value in data set [5] is “increased”.
Take `C/C=C/c1ccc(OC)c(OC)c1` [cis-methyl isoeugenol]: the AUC(0-inf) in data set [5] (setting [10]) turned out to be 123 ± 30 ng·h/mL; in data set [5] (setting [11]), 129 ± 45.5 ng·h/mL. Besides, the AUC(0-t) is 93.8 ± 20.4 ng·h/mL in data set [5] (setting [10]) and 118 ± 45.2 ng·h/mL in [5] (setting [11]). In addition, the values for the highest concentration (Cmax) in [5] (setting [10]) and in data set [5] (setting [11]) were 19.4 ± 18.8 ng/mL and 24.1 ± 4.99 ng/mL, respectively. Also, the half-life is 7.49 ± 2.55 h in data set [5] (setting [10]) and 8.1 ± 2.69 h in data set [5] (setting [11]). The Tmax in data set [5] (setting [15]) came out at 3.51 h; in data set [5] (setting [12]), 1.58 h; in data set [5] (setting [14]), 3.514 ± 3.753 h; in data set [5] (oral PA extract 4.32 g/kg once) it was 1.583 ± 3.163 h. Also, the “Plasma concentration after oral PA compared to the level after PMRP or ATR” value in data set [5] was “similar”.
`Cc1cc(O)c2c(c1)C(=O)c1cc(O)cc(O)c1C2=O` [emodin]: the “Effect on synaptic impairment” value in [8] is on record as “protected against synaptic impairment”. The figures for the AUC(0-inf) in data set [7] (2.16 g/kg) and in data set [7] (4.32 g/kg) were 7400 ng·h/mL and 4160 ng·h/mL, respectively. Moreover, the AUC(0-t) in data set [7] (2.16 g/kg) was 847 ± 802 ng·h/mL; in data set [7] (4.32 g/kg), 1810 ± 934 ng·h/mL. Moreover, the peak concentration (Cmax) in [7] (2.16 g/kg) came to 370 ± 288 ng/mL; in data set [7] (4.32 g/kg), 363 ± 122 ng/mL. Besides, the results for the half-life in data set [7] (2.16 g/kg) and in data set [7] (4.32 g/kg) were 3.7 ± 6.83 h and 14 ± 11.8 h, respectively. The Tmax in data set [7] (setting [16]) turned out to be 2.76 h; in [7] (setting [13]), 0.47 h; in data set [5] (oral PA extract 4.32 g/kg once) it was 0.472 ± 0.748 h; in data set [5] (setting [17]), 2.764 ± 4.056 h.
In [9], `O=C(O)c1cc(O)c(O)c(O)c1` [gallic acid] gave a T1/2 of 19.532 ± 13.369 h. The AUC(0-inf) in data set [7] (2.16 g/kg) came to 2700 ng·h/mL; in data set [7] (4.32 g/kg) it was 1530 ng·h/mL. Further, the AUC(0-t) stood at 2460 ng·h/mL in data set [7] (2.16 g/kg) and 831 ± 497 ng·h/mL in [7] (4.32 g/kg). For the same compound, the Cmax stood at 216 ± 47.9 ng/mL in data set [7] (2.16 g/kg) and 246 ± 244 ng/mL in data set [7] (4.32 g/kg). Also, the half-life in data set [7] (2.16 g/kg) was 6.98 ± 2.15 h. The Tmax turned out to be 0.69 h in [7] (setting [16]), 0.44 h in data set [7] (setting [13]), 0.444 ± 0.763 h in data set [5] (oral PA extract 4.32 g/kg once) and 0.694 ± 0.356 h in data set [5] (setting [17]). The “Plasma concentration after oral PA compared to the level after PMRP or ATR” value in data set [5] is “similar”.
On to `C/C=C/c1cc(OC)c(OC)cc1OC` [α-asarone], for which the results for the AUC(0-inf) in data set [5] (setting [10]) and in data set [5] (setting [11]) were 1040 ng·h/mL and 1240 ng·h/mL, respectively. Also, the values for the AUC(0-t) in data set [5] (setting [10]) and in [5] (setting [11]) were 600 ± 360 ng·h/mL and 1020 ng·h/mL, respectively. The Cmax in data set [5] (setting [10]) stood at 73.5 ± 25.9 ng/mL; in data set [5] (setting [11]), 101 ± 30.3 ng/mL. For the same compound, the half-life was 11.8 ± 12.6 h in [5] (setting [10]) and 8.26 ± 2.7 h in data set [5] (setting [11]). Moreover, the Tmax in data set [5] (setting [15]) stood at 3.54 h; in data set [5] (setting [12]), 0.88 h; in [5] (setting [14]), 3.542 ± 3.736 h; in data set [5] (oral PA extract 4.32 g/kg once), 0.875 ± 0.699 h. Also, the “Plasma concentration after oral PA compared to the level after PMRP or ATR” value in data set [5] was “increased”. Further, the “Effect on learning and memory deficits” value in data set [6] (ref Limón et al., 2009, Shin et al., 2014, Li et al., 2019, 2020) is “improved learning and memory deficits”.
For `C/C=C\c1cc(OC)c(OC)cc1OC` [β-asarone], the figures for the AUC(0-inf) in data set [5] (setting [10]) and in data set [5] (setting [11]) were 1050 ng·h/mL and 744 ± 620 ng·h/mL, respectively. Also, the figures for the AUC(0-t) in [5] (setting [10]) and in [5] (setting [11]) were 603 ± 281 ng·h/mL and 439 ± 209 ng·h/mL, respectively. For the same compound, the concentration in data set [5] (setting [10]) peaked (Cmax) at 49.8 ± 16 ng/mL. The values for the half-life in data set [5] (setting [10]) and in [5] (setting [11]) were 10.7 ± 6.94 h and 14 ± 14.8 h, respectively. For the same compound, the Tmax came out at 4.78 h in data set [5] (setting [15]), 0.35 h in data set [5] (setting [12]), 4.778 ± 3.777 h in data set [5] (setting [14]) and 0.347 ± 0.351 h in data set [5] (oral PA extract 4.32 g/kg once). Besides, the “Plasma concentration after oral PA compared to the level after PMRP or ATR” value in data set [5] is on record as “similar”.

As a reminder, the AUC(0-inf) is total exposure, with the tail of the curve extrapolated. A high value points to more exposure. The term AUC(0-t) denotes exposure summed from dosing to a finite time, without extrapolation to infinity. A high value points to high exposure. As usually defined, the Cmax is the maximum level reached in the sampled fluid or tissue. Usually half-life stands for the time needed for the level to fall by half in the phase considered. A low value points to fast loss.
